# Molecular target: human aquaporin 9 (Homo sapiens (Human), UniProt O43315)
# Test: Calcein quenching fluostar assay (inhibition of human aquaporin 9)
# Type: cell-based
# Conditions: Human AQP9 cell line; example compounds used as 1 mM stock solutions in DMSO
# Experimental: Calcein Quenching Fluostar Assay
# A calcein quenching fluostar assay was performed in order to investigate the biological activity of the newly synthesized examples 1 to 57. This type of assay is disclosed in J. Biol. Chem., 2011, 286, 44319-44325 and Am. J. Physiol. Renal Physiol. (2010), 298, F224-230.
# 1) Two days prior to commencement of the assay, seed 10,000 cells/well of 96 well black clear bottom plate (Greiner Poly-lysin plate). A 1:1 mix of Dulbecco's Modified Eagle's Medium: Nutrient Mixture F-12 (DMEM: F12) was obtained from Gibco. Tetracycline stock of 5 mg/ml in 96% ethanol is used. Medium: DMEM/F12/10% Donor Bovine Serum, Human AQP9 cell line+1:270,000 tetracyclin, mouse AQP9 cell line+1:2,700,000 tetracycline.
# 2) Day of assay: Flick/slam off the medium and add 50 μl/well of loading solution: 5 ml DMEM/F12/10% Donor Bovine Serum, 25 μl Calcein AM—from freshly dissolved aliquot in 50 μl DMSO (VWR #734-1434), and 100 μl Probenecid.
# 3) Incubate the well for 90 minutes at 37° C.
# 4) Perform one wash with 75 μl wash buffer.
# 5) Add 75 μl of an example compound prepared in wash buffer per well.
# Example compounds are prepared in 500 μl U bottom PP plates (NUNC). 2.7 μl Substance in DMSO are added to row A; 180 μl of wash buffer+1% DMSO are added to rows B—H. 90 μl from row A are transferred and mixed with all other wells (up to row G) to make a 3-fold dilution series.
# 6) Assay in FLUOstar Optima at 25° C. Settings buffer addition at 135 μl/seconds, add 75 μl/well, record time course for 30 seconds, add sucrose buffer 3.6 seconds into recording.
# 7) Normalization to initial in Excel.
# 8) Fit to “exponential decay” function in GraphPad Prism 5.0, then arrange half live shrinking values according to wells and fit dose-response curves.
# Chain of human aquaporin 9 (O43315 whole entry): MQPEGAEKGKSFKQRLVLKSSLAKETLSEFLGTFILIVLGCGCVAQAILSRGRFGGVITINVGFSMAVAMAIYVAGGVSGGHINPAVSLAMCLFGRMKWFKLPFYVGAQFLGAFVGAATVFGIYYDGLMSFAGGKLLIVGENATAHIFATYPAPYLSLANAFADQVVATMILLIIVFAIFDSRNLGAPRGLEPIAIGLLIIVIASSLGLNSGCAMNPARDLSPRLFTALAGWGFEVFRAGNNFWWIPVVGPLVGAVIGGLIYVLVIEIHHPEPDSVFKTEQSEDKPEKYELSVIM
EC50,pEC50 in the inhibition of human aquaporin 9,SMILES
173 nM,–,"CCc1nnc(SCC(=O)Nc2nnc(-c3ccc(OC)cc3)s2)n1-c1ccccc1 [Example 1, 2-[(5-ethyl-4-phenyl-4H-1,2,4-triazol-3-yl)sulfanyl]-N-[5-(4-methoxyphenyl)-1,3,4-thiadiazol-2-yl]acetamide]"
59 nM,–,"CCc1nnc(SCC(=O)Nc2nnc(-c3ccc(OC)cc3)s2)n1CC [Example 2, 2-[(diethyl-4H-1,2,4-triazol-3-yl)sulfanyl]-N-[5-(4-methoxyphenyl)-1,3,4-thiadiazol-2-yl]acetamide]"
195 nM,6.7,"CCn1c(Cc2ccccc2)nnc1SCC(=O)Nc1nnc(-c2ccc(OC)cc2)s1 [Example 3, 2-[(5-benzyl-4-ethyl-4H-1,2,4-triazol-3-yl)sulfanyl]-N-[5-(4-methoxyphenyl)-1,3,4-thiadiazol-2-yl]acetamide]"
175 nM,–,"CCn1c(OCC(=O)Nc2nnc(-c3ccc(OC)cc3)s2)nnc1-c1ccc(F)cc1 [Example 4, 2-{[4-ethyl-5-(4-fluorophenyl)-4H-1,2,4-triazol-3-yl]oxy}-N-[5-(4-methoxyphenyl)-1,3,4-thiadiazol-2-yl]acetamide]"
455 nM,–,"CCn1c(C)nnc1SCC(=O)Nc1nnc(-c2ccc(S(C)(=O)=O)cc2)s1 [Example 5, 2-[(4-ethyl-5-methyl-4H-1,2,4-triazol-3-yl)sulfanyl]-N-[5-(4-methanesulfonylphenyl)-1,3,4-thiadiazol-2-yl]acetamide]"
192 nM,6.7,"CCn1c(SCC(=O)Nc2nnc(-c3ccc(S(C)(=O)=O)cc3)s2)nnc1C(C)C [Example 6, 2-{[4-ethyl-5-(propan-2-yl)-4H-1,2,4-triazol-3-yl]sulfanyl}-N-[5-(4-methanesulfonylphenyl)-1,3,4-thiadiazol-2-yl]acetamide]"
105 nM,7,"CCn1c(SCC(=O)Nc2nnc(-c3ccc(S(C)(=O)=O)cc3)s2)nnc1C1CC1 [Example 7, 2-[(5-cyclopropyl-4-ethyl-4H-1,2,4-triazol-3-yl)sulfanyl]-N-[5-(4-methanesulfonylphenyl)-1,3,4-thiadiazol-2-yl]acetamide]"
66 nM,7.2,"CCc1nnc(SCC(=O)Nc2nnc(-c3ccc(S(C)(=O)=O)cc3)s2)n1CC [Example 8, 2-[(diethyl-4H-1,2,4-triazol-3-yl)sulfanyl]-N-[5-(4-methanesulfonylphenyl)-1,3,4-thiadiazol-2-yl]acetamide]"
87 nM,–,"CCn1c(SCC(=O)Nc2ccc(-c3ccc(OC)cc3)nn2)nnc1-c1ccc(F)cc1 [Example 9, 2-{[4-ethyl-5-(4-fluorophenyl)-4H-1,2,4-triazol-3-yl]sulfanyl}-N-[6-(4-methoxyphenyl)pyridazin-3-yl]acetamide]"
101 nM,7,"CCc1nnc(SCC(=O)Nc2nnc(-c3ccc(OC)cc3)s2)n1C [Example 10, 2-[(5-ethyl-4-methyl-4H-1,2,4-triazol-3-yl)sulfanyl]-N-[5-(4-methoxyphenyl)-1,3,4-thiadiazol-2-yl]acetamide]"
394 nM,6.4,"COc1ccc(-c2nnc(NC(=O)CSc3nnc(C)n3-c3ccccc3)s2)cc1 [Example 11, N-[5-(4-methoxyphenyl)-1,3,4-thiadiazol-2-yl]-2-[(5-methyl-4-phenyl-4H-1,2,4-triazol-3-yl)sulfanyl]acetamide]"
57 nM,–,CCc1nnc(SCC(=O)Nc2nnc(-c3ccc(SC)cc3)s2)n1CC [Example 12]
101 nM,7,"CCc1nnc(SCC(=O)Nc2nnc(-c3ccc(OCC(C)C)cc3)s2)n1CC [Example 13, 2-[(diethyl-4H-1,2,4-triazol-3-yl)sulfanyl]-N-{5-[4-(2-methylpropoxy)phenyl]-1,3,4-thiadiazol-2-yl}acetamide]"
65 nM,7.2,"CCc1ccc(-c2nnc(NC(=O)CSc3nnc(CC)n3CC)s2)cc1 [Example 14, 2-[(diethyl-4H-1,2,4-triazol-3-yl)sulfanyl]-N-[5-(4-ethylphenyl)-1,3,4-thiadiazol-2-yl]acetamide]"
57 nM,–,"CCCc1ccc(-c2nnc(NC(=O)CSc3nnc(CC)n3CC)s2)cc1 [Example 15, 2-[(diethyl-4H-1,2,4-triazol-3-yl)sulfanyl]-N-[5-(4-propylphenyl)-1,3,4-thiadiazol-2-yl]acetamide]"
179 nM,–,"CCCCc1ccc(-c2nnc(NC(=O)CSc3nnc(CC)n3CC)s2)cc1 [Example 16, 2-[(diethyl-4H-1,2,4-triazol-3-yl)sulfanyl]-N-[5-(4-butylphenyl)-1,3,4-thiadiazol-2-yl]acetamide]"
127 nM,6.9,"CCc1nnc(SCC(=O)Nc2nnc(-c3ccccc3)s2)n1CC [Example 17, 2-[(diethyl-4H-1,2,4-triazol-3-yl)sulfanyl]-N-(5-phenyl-1,3,4-thiadiazol-2-yl)acetamide]"
124 nM,6.9,"CCc1nnc(SCC(=O)Nc2nnc(-c3ccc4c(c3)CCO4)s2)n1CC [Example 18, 2-[(diethyl-4H-1,2,4-triazol-3-yl)sulfanyl]-N-[5-(2,3-dihydro-1-benzofuran-5-yl)-1,3,4-thiadiazol-2-yl]acetamide]"
94 nM,–,"CCc1nnc(SCC(=O)Nc2nnc(-c3ccc(CC(C)C)cc3)s2)n1CC [Example 19, 2-[(diethyl-4H-1,2,4-triazol-3-yl)sulfanyl]-N-{5-[4-(2-methylpropyl)phenyl]-1,3,4-thiadiazol-2-yl}acetamide]"
79 nM,7.1,"CCc1nnc(SCC(=O)Nc2nnc(-c3ccc(C(C)C)cc3)s2)n1CC [Example 20, 2-[(diethyl-4H-1,2,4-triazol-3-yl)sulfanyl]-N-{5-[4-(propan-2-yl)phenyl]-1,3,4-thiadiazol-2-yl}acetamide]"
224 nM,–,"CCc1nnc(SCC(=O)Nc2nnc(-c3ccc(O)cc3)s2)n1CC [Example 21, 2-[(diethyl-4H-1,2,4-triazol-3-yl)sulfanyl]-N-[5-(4-hydroxyphenyl)-1,3,4-thiadiazol-2-yl]acetamide]"
249 nM,–,"CCn1c(CCOC)nnc1SCC(=O)Nc1nnc(-c2ccccc2)s1 [Example 22, 2-{[4-ethyl-5-(2-methoxyethyl)-4H-1,2,4-triazol-3-yl]sulfanyl}-N-(5-phenyl-1,3,4-thiadiazol-2-yl)acetamide]"
39 nM,7.4,"CCn1c(CCOC)nnc1SCC(=O)Nc1nnc(-c2ccc(OC(C)C)cc2)s1 [Example 23, 2-{[4-ethyl-5-(2-methoxyethyl)-4H-1,2,4-triazol-3-yl]sulfanyl}-N-{5-[4-(propan-2-yloxy)phenyl]-1,3,4-thiadiazol-2-yl}acetamide]"
41 nM,7.4,"CCCc1ccc(-c2nnc(NC(=O)CSc3nnc(CCOC)n3CC)s2)cc1 [Example 24, 2-{[4-ethyl-5-(2-methoxyethyl)-4H-1,2,4-triazol-3-yl]sulfanyl}-N-[5-(4-propylphenyl)-1,3,4-thiadiazol-2-yl]acetamide]"
42 nM,–,"CCOc1ccc(-c2nnc(NC(=O)CSc3nnc(CC)n3CC)s2)cc1 [Example 25, 2-[(diethyl-4H-1,2,4-triazol-3-yl)sulfanyl]-N-[5-(4-ethoxyphenyl)-1,3,4-thiadiazol-2-yl]acetamide]"
43 nM,–,"CCc1nnc(SCC(=O)Nc2nnc(-c3ccc(OCCF)cc3)s2)n1CC [Example 26, 2-[(diethyl-4H-1,2,4-triazol-3-yl)sulfanyl]-N-{5-[4-(2-fluoroethoxy)phenyl]-1,3,4-thiadiazol-2-yl}acetamide]"
69 nM,–,"CCOc1ccc(-c2nnc(NC(=O)CSc3nnc(C(C)C)n3CC)s2)cc1 [Example 27, N-[5-(4-ethoxyphenyl)-1,3,4-thiadiazol-2-yl]-2-{[4-ethyl-5-(propan-2-yl)-4H-1,2,4-triazol-3-yl]sulfanyl}acetamide]"
44 nM,–,"CCn1c(SCC(=O)Nc2nnc(-c3ccc(OCCF)cc3)s2)nnc1C(C)C [Example 28, 2-{[4-ethyl-5-(propan-2-yl)-4H-1,2,4-triazol-3-yl]sulfanyl}-N-{5-[4-(2-fluoroethoxy)phenyl]-1,3,4-thiadiazol-2-yl}acetamide]"
90 nM,–,"CCn1c(SCC(=O)Nc2nnc(-c3ccc(OC(C)C)cc3)s2)nnc1C(C)C [Example 29, 2-{[4-ethyl-5-(propan-2-yl)-4H-1,2,4-triazol-3-yl]sulfanyl}-N-{5-[4-(propan-2-yloxy)phenyl]-1,3,4-thiadiazol-2-yl}acetamide]"
21 nM,–,"CCc1nnc(SCC(=O)Nc2nnc(-c3ccc(OCCOC)cc3)s2)n1CC [Example 30, 2-[(diethyl-4H-1,2,4-triazol-3-yl)sulfanyl]-N-{5-[4-(2-methoxyethoxy)phenyl]-1,3,4-thiadiazol-2-yl}acetamide]"

# Reference: patent US10730865B2, “Compounds for modulating aquaporins” (APOGLYX AB, priority 2016, dated 2020)
